Laboratory results: patent US9320682B2, “Tooth filling materials and dental varnish for inhibiting the formation of a biofilm of Streptococcus mutans and the production thereof” (VOCO Gmbh, priority 2012, dated 2016)

Tests used:
Format in all cases: cell-based
[1] = tested on: Streptococcus mutans UA159; experiment: Biofilm inhibition on hardened tooth filling material test members, LIVE/DEAD BacLight fluorescence (Example 9); settings: for biofilm inhibition (in words): active substance in hardened tooth filling material, carolacton 25 μg/ml, triclosan and chlorohexidine 2500 μg/ml
Procedure: The admixture from example 2 was used as the tooth filling material according to the invention.
(§1) In addition, three tooth filling materials similar to example 2 were prepared, where carolacton was replaced with triclosan in a first comparison admixture, carolacton was replaced with chlorohexidine in a second comparison admixture and carolacton was omitted in a third comparison admixture (control).
(§2) From each of the tooth filling materials produced, by hardening the tooth filling material 10 dental test members were produced with a diameter of 7 mm and a height of 1 mm and adhesively bonded with a small quantity of the tooth filling material in a total of 40 wells of a 96-well microtitration plate of polystyrene (Greiner Bio-One, μ Clear Plate Black, Frickenhausen, Germany).
In a THB nutrition medium, an over-night culture of Streptococcus mutans UA159 was produced under anaerobic conditions. The over-night culture obtained was diluted to an optimum density (at 620 nm; OD620) of from 0.01 to 0.03 with THB (with addition of 0.5% (G/V) of saccharose). Subsequently, 200 μl of the dilute over-night culture was introduced by pipette into the wells of the 96-well microtitration plate provided with the dental test members. The microtitration plate was subsequently incubated for 20 hours at 37° C. under anaerobic conditions in an incubator.
The determination of the biofilm inhibition was carried out with a LIVE/DEAD BacLight kit L13152 (Invitrogen, Molecular Probes, Inc. Eugene, Oreg., USA), taking note of the manufacturer's instructions. The kit comprises two dye solutions, propidium iodide and SYT09 which each discolour nucleic acids. The excesses of the biofilms in the individual wells of the 96-well microtitration plate were removed. In order to remove plankton-like or loosely bonded bacteria, the biofilm was carefully washed with 200 μl of a 0.85% NaCl solution, mixed with 200 μl of a 1:1 admixture of propidium iodide and SYT09 and subsequently left to stand for 15 minutes and at ambient temperature with light being excluded. The measurement of the fluorescence was carried out on a Wallac Victor3™ 1420Multilabel Counter (Perkin-Elmer Life Sciences) provided with detectors and filters for measuring the fluorescence at 630 nm (red) and 535 nm (green). The biofilm inhibition is given in percent as a quotient between the quotient of green and red fluorescence of the sample with the active substance (carolacton, chlorohexidine or triclosan) and the quotient of green and red fluorescence of the sample without any active substance (control).

[2] = tested on: Streptococcus mutans UA159; experiment: Colony-forming units in the biofilm on tooth filling material test members (Example 9); settings: triclosan and chlorohexidine at a hundred times the concentration of carolacton
Procedure: (§3) Stock solutions and corresponding diluted solutions of chlorohexidine, triclosan and carolacton were produced in methanol. […] of those solutions to be tested were introduced by pipette into microtitration plates; 9 parallel wells were used per substance and concentration. The methanol was evaporated (under a hood) and then 200 μl of the dilute bacterial suspension were added. The final concentrations of the active substances in the 200 μl of bacterial suspension were 0.25 μg/ml and 2.5 μg/ml. The plates were incubated anaerobically at 37° C. without agitation for 20 hours. Subsequently, the excess was removed by pipette, the biofilm was washed with a physiological cooking salt solution (0.85% of NaCl) and the biofilm was scraped off with a pipette. The biofilms from three parallel wells were suspended in 500 μl of PBS. From that biofilm suspension, a serial dilution in PBS was prepared. After each dilution step, vortexing was carried out for 1 minute. From each dilution, 50 μl was distributed three times on agar plates (TH medium). The plates were incubated for three days in the CO2 cupboard at 37° C., then the colony-forming units (CFU) were counted and the bacteria density in relation to […] of biofilm suspension was calculated.
as §1, §2
In a THB nutrition medium, an over-night culture of Streptococcus mutans UA159 was produced under anaerobic conditions. […]

[3] = tested on: Streptococcus mutans UA159; experiment: Colony-forming units of Streptococcus mutans biofilm after treatment with solutions of active substances (Example 8); settings: for reduction in the colony-forming units: active substance in solution, final concentrations 0.25 μg/ml and 2.5 μg/ml, 20 hours anaerobic at 37° C.; for antimicrobial action in relation to Streptococcus mutans: solutions of the active substances at specific low concentrations (Example 8)
Procedure: In a THB nutrition medium, an over-night culture of Streptococcus mutans UA159 was cultivated anaerobically. That over-night culture was diluted to an optimum density (at 620 nm; OD620) of from 0.01 to 0.03 with THB (with addition of 0.5% (GN) of saccharose) so that a dilute bacterial suspension was obtained.
as §3

SMILES	inhibition at 25 µg/mL ([1]; Streptococcus mutans, UA159, active substance 25 μg/ml in hardened tooth filling material of example 2, 20 hours, green/red fluorescence quotient vs control)	biofilm inhibition (in words) [1]	effect on number of CFU in the biofilm (in words) [2]	reduction in the colony-forming units [3]	antimicrobial action in relation to Streptococcus mutans [3]	Biofilm inhibition [%] ([1]; active substance 2500 μg/ml in hardened tooth filling material similar to example 2, 20 hours, green/red fluorescence quotient vs control)	inhibition at 2500 µg/mL ([1]; Streptococcus mutans, UA159, 20 h, read-out: Biofilm inhibition [%])
COC(CC(=O)O)C(C)C(=O)C(C)/C=C(\C)C1OC(=O)C(O)C(O)/C=C/C(C)CCCC1C (stereo not drawn) [carolacton]	51%	very good biofilm inhibition	powerful inhibiting effect	merely weakly reduces the number of colony-forming units	only has a weak antimicrobial action		
N=C(NCCCCCCNC(=N)NC(=N)Nc1ccc(Cl)cc1)NC(=N)Nc1ccc(Cl)cc1 [chlorohexidine]		scarcely influence the biofilm formation	neither triclosan nor chlorohexidine, although used at a hundred times the concentration of carolacton, results in a powerful reduction of the number of CFU	very powerful reduction in the colony-forming units	very powerful antimicrobial activity	1%	
Oc1cc(Cl)ccc1Oc1ccc(Cl)cc1Cl [triclosan]		scarcely influence the biofilm formation	neither triclosan nor chlorohexidine, although used at a hundred times the concentration of carolacton, results in a powerful reduction of the number of CFU	very powerful reduction in the colony-forming units	very powerful antimicrobial activity		1%
